Test results from article PMC7692923, “Co-Ingestion of Black Carrot and Strawberry. Effects on Anthocyanin Stability, Bioaccessibility and Uptake” (Foods, 2020).

How the values were obtained:
Type in all cases: in vitro ADME
[1] = Gastric stability of anthocyanins in extracts, standardized in vitro digestion (simulated gastric fluid, pepsin, pH 3.0); settings: for Gastric stability: % of undigested
Description: (§1) A standardized in vitro digestion procedure was applied to each sample [20]. For the gastric phase, 7.5 mL of a simulated gastric fluid (in mM: KCl 6.9, KH2PO4 0.9, NaHCO3 25, NaCl 47.2, MgCl2(H2O) 0.1, (NH4)2CO3 0.5, pH 3.0), 5 µL of CaCl2 (0.3 M) and 1.6 mL of porcine pepsin solution (25,000 U/mL) were added and the pH of was adjusted to 3.0 using HCl (1 M). Demineralized water was added to the gastric chyme to complete a volume of 20 mL. Nitrogen was flushed into the headspace of the tubes before incubation at 37 °C during 2 h in the dark, while end-over-end rotation (40 rpm). For the intestinal phase simulation, the gastric chyme was mixed with 11 mL of simulated intestinal fluid (in mM: KCl 6.8, KH2PO4 0.8, NaHCO3 85, NaCl 38.4, MgCl2(H2O) 0.33, pH 7.0), 40 µL of CaCl2, 5 mL of pancreatin solution (800 U/mL based on trypsin activity) and 2.5 mL of bile solution (160 mM). NaOH (1 M) was used to adjust the pH to 7 and water to complete the volume until 40 mL. Prior to incubation in the dark, at 37 °C, 2 h, end-over-end rotation, the headspace of the tubes was flushed with nitrogen.
(§2) Aliquots from gastric and intestinal digests were sampled along black carrot and strawberry extracts digestion, stabilized by acidification with formic acid and stored at −20 °C until further analysis. Stability (%) was calculated as indicated by Equations (1) and (2). (1) Gastric stability (%)=(anthocyanin (mg·100 mL^−1) after gastric digestion)/(anthocyanin (mg·100 mL^−1) before digestion)×100 (2) Intestinal stability (%)=(anthocyanin (mg·100 mL^−1) after intestinal digestion)/(anthocyanin (mg·100 mL^−1) before digestion)×100

[2] = Intestinal stability of anthocyanins in extracts, standardized in vitro digestion (simulated intestinal fluid, pancreatin, bile, pH 7); settings: for Intestinal stability: % of undigested; for Post-Intestinal concentration: mean ± SD n = 3
Description: as §1, §2

[3] = In vitro bioaccessibility after digestion of matrix-containing powder; settings: for Post-digestion concentration (bioaccessible fraction): mean ± SD n = 3
Description: as §1
After digestion of the powdered samples, an ultracentrifugation (Beckman L7 ultracentrifuge, Palo, Alto, CA, USA) at 165,000× g, 4 °C, 65 min, was performed to separate soluble and non-soluble fractions. The supernatant, containing the bioaccessible anthocyanins, was isolated. For the determination of anthocyanins, the digest was acidified with formic acid (1%) to stabilize the compounds, prior to the quantification by high performance liquid chromatography (HPLC). Results are shown as the ratio of the bioaccessible compound concentration to the initial compound concentration in the sample, as indicated in Equation (3). (3) Bioaccessibility (%)=(anthocyanin (mg.100 g^−1) after digestion)/(anthocyanin (mg.100 g^−1) before digestion)×100

[4] = co-digestion of black carrot and strawberry extracts
[5] = co-digestion of black carrot and strawberry extracts, mean ± SD n = 3
[6] = single digestion, liquid extract, 2 h 37 °C pH 3.0, mean ± SD n = 3
[7] = single digestion, liquid extract
[8] = single digestion, liquid extract, pH 7, 2 h 37 °C
[9] = co-digestion of black carrot and strawberry powder
[10] = single digestion, matrix-containing powder

Row | Structure (SMILES) | Gastric stability [1, 4] [%] | Post-Gastric concentration [1, 5] | Post-Gastric concentration [1, 6] | Gastric stability [1, 7] [%] | Intestinal stability [2, 4] [%] | Post-Intestinal concentration [2, 4] | Intestinal stability [2, 7] [%] | Post-Intestinal concentration [2, 8] | Bioaccessibility [3, 9] [%] | Post-digestion concentration (bioaccessible fraction) [3, 9] | Bioaccessibility [3, 10] [%] | Post-digestion concentration (bioaccessible fraction) [3, 10]
1 | O=C(/C=C/c1ccc(O)cc1)OC[C@H]1O[C@@H](OC[C@H]2O[C@@H](Oc3cc4c(O)cc(O)cc4[o+]c3-c3ccc(O)c(O)c3)[C@H](O[C@@H]3OC[C@@H](O)[C@H](O)[C@H]3O)[C@@H](O)[C@H]2O)[C@H](O)[C@@H](O)[C@@H]1O [Cyanidin-3-xylosyl-coumaroyl-glucosyl-galactoside] | 66 | 1.16 ± 0.02 mg/100 mL of extract | 1.14 ± 0.01 mg/100 mL of extract | 65 | 42 | 0.75 ± 0.04 mg/100 mL of extract | 48 | 0.85 ± 0.07 mg/100 mL of extract | 52 | 105.2 ± 0.9 mg/100 g of sample (dry weight) | 28 | 55.8 ± 5.2 mg/100 g of sample (dry weight)
2 | COc1cc(/C=C/C(=O)OC[C@H]2O[C@@H](OC[C@H]3O[C@@H](Oc4cc5c(O)cc(O)cc5[o+]c4-c4ccc(O)c(O)c4)[C@H](O[C@@H]4OC[C@@H](O)[C@H](O)[C@H]4O)[C@@H](O)[C@H]3O)[C@H](O)[C@@H](O)[C@@H]2O)ccc1O [Cyanidin-3-xylosyl-feruloyl-glucosyl-galactoside] | 86 | 8.28 ± 0.03 mg/100 mL of extract | 8.23 ± 0.04 mg/100 mL of extract | 86 | 60 | 5.81 ± 0.03 mg/100 mL of extract | 58 | 5.54 ± 0.05 mg/100 mL of extract | 48 | 528.3 ± 15.0 mg/100 g of sample (dry weight) | 34 | 378.4 ± 26.1 mg/100 g of sample (dry weight)
3 | OC[C@H]1O[C@@H](Oc2cc3c(O)cc(O)cc3[o+]c2-c2ccc(O)c(O)c2)[C@H](O[C@@H]2OC[C@@H](O)[C@H](O)[C@H]2O)[C@@H](O)[C@H]1O [Cyanidin-3-xylosyl-galactoside] | 83 | 0.98 ± 0.02 mg/100 mL of extract | 0.95 ± 0.00 mg/100 mL of extract | 81 | 92 | 1.09 ± 0.01 mg/100 mL of extract | 79 | 0.94 ± 0.01 mg/100 mL of extract | 84 | 113.8 ± 0.2 mg/100 g of sample (dry weight) | 33 | 44.1 ± 4.4 mg/100 g of sample (dry weight)
4 | OC[C@H]1O[C@@H](OC[C@H]2O[C@@H](Oc3cc4c(O)cc(O)cc4[o+]c3-c3ccc(O)c(O)c3)[C@H](O[C@@H]3OC[C@@H](O)[C@H](O)[C@H]3O)[C@@H](O)[C@H]2O)[C@H](O)[C@@H](O)[C@@H]1O [Cyanidin-3-xylosyl-glucosyl-galactoside] | 56 | 0.24 ± 0.02 mg/100 mL of extract | 0.25 ± 0.01 mg/100 mL of extract | 59 | 99 | 0.42 ± 0.00 mg/100 mL of extract | 86 | 0.36 ± 0.00 mg/100 mL of extract | 105 | 50.5 ± 9.2 mg/100 g of sample (dry weight) | 62 | 29.7 ± 3.7 mg/100 g of sample (dry weight)
5 | OC[C@H]1O[C@@H](Oc2cc3c(O)cc(O)cc3[o+]c2-c2ccc(O)cc2)[C@H](O)[C@@H](O)[C@@H]1O [Pelargonidin-3-glucoside] | 76 | 12.63 ± 0.46 mg/100 mL of extract | 11.13 ± 0.09 mg/100 mL of extract | 90 | 35 | 5.78 ± 0.13 mg/100 mL of extract | 49 | 6.01 ± 0.02 mg/100 mL of extract | 28 | 272.5 ± 19.7 mg/100 g of sample (dry weight) | 36 | 256.6 ± 8.3 mg/100 g of sample (dry weight)
6 | O=C(O)CC(=O)OC[C@H]1O[C@@H](Oc2cc3c(O)cc(O)cc3[o+]c2-c2ccc(O)cc2)[C@H](O)[C@@H](O)[C@@H]1O [Pelargonidin-3-malonyl-glucoside] | 92 | 3.57 ± 0.07 mg/100 mL of extract | 3.37 ± 0.01 mg/100 mL of extract | 87 | 49 | 1.91 ± 0.02 mg/100 mL of extract | 46 | 1.77 ± 0.01 mg/100 mL of extract | 36 | 81.3 ± 6.6 mg/100 g of sample (dry weight) | 34 | 76.2 ± 1.8 mg/100 g of sample (dry weight)
